Experimental data: ChEMBL document CHEMBL1142248, “Structure-activity relationships and pharmacokinetic parameters of quinoline acylsulfonamides as potent and selective antagonists of the EP(4) receptor” (Bioorg Med Chem Lett, 2008)

How the values were obtained:
[1] = Half life in dog at 2 mg/kg, iv; assay type: ADME, organism-based, Canis lupus familiaris; parameters: dose 2 mg/kg, route intravenous; conditions: in vivo
[2] = Clearance in dog at 10 mg/kg, po or 2 mg/kg, iv; assay type: ADME, organism-based, Canis lupus familiaris; conditions: in vivo
[3] = Volume of distribution at steady state in dog at 10 mg/kg, po or 2 mg/kg, iv; assay type: ADME, organism-based, Canis lupus familiaris; conditions: in vivo, read-out: Vdss
[4] = Bioavailability in rat at 20 mg/kg, po or 5 mg/kg, iv; assay type: ADME, organism-based; conditions: in vivo
[5] = Half life in rat at 5 mg/kg, iv; assay type: ADME, organism-based; parameters: dose 5 mg/kg, route intravenous; conditions: in vivo
[6] = Clearance in rat at 20 mg/kg, po or 5 mg/kg, iv; assay type: ADME, organism-based; conditions: in vivo
[7] = Volume of distribution at steady state in rat at 20 mg/kg, po or 5 mg/kg, iv; assay type: ADME, organism-based; conditions: in vivo, read-out: Vdss
[8] = Bioavailability in guinea pig at 20 mg/kg, po or 5 mg/kg, iv; assay type: ADME, organism-based, Cavia porcellus; conditions: in vivo
[9] = Half life in guinea pig at 5 mg/kg, iv; assay type: ADME, organism-based, Cavia porcellus; parameters: dose 5 mg/kg, route intravenous; conditions: in vivo
[10] = Clearance in guinea pig at 20 mg/kg, po or 5 mg/kg, iv; assay type: ADME, organism-based, Cavia porcellus; conditions: in vivo
[11] = Volume of distribution at steady state in guinea pig at 20 mg/kg, po or 5 mg/kg, iv; assay type: ADME, organism-based, Cavia porcellus; conditions: in vivo, read-out: Vdss
[12] = Bioavailability in dog at 10 mg/kg, po or 2 mg/kg, iv; assay type: ADME, organism-based, Canis lupus familiaris; conditions: in vivo
[13] = target: T1, Prostaglandin E2 receptor EP4 subtype (Homo sapiens, UniProt P35408); experiment: Binding affinity to human EP4 receptor expressed in HEK293 cells; assay type: cell-based
T1 sequence (P35408 whole entry): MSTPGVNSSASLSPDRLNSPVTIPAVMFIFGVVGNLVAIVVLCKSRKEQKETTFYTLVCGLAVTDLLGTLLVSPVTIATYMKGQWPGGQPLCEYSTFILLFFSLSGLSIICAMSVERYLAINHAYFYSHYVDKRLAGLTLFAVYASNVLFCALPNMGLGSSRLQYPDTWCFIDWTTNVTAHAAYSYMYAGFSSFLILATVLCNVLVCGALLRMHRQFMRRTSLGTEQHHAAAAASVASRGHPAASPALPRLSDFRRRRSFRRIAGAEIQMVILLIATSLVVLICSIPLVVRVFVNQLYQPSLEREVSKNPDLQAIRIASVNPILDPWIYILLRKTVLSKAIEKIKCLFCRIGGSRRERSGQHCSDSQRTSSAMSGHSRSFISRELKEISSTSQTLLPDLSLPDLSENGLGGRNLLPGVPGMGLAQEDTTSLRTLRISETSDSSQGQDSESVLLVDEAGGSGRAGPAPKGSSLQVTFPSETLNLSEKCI

[14] = target: T1, Prostaglandin E2 receptor EP4 subtype; experiment: Binding affinity to human EP4 receptor expressed in HEK293 cells in presence of 10% human serum; assay type: cell-based
[15] = target: T2, Prostaglandin D2 receptor (Homo sapiens, UniProt Q13258); experiment: Binding affinity to human DP receptor expressed in HEK293 cells; assay type: cell-based
T2 sequence (Q13258 whole entry): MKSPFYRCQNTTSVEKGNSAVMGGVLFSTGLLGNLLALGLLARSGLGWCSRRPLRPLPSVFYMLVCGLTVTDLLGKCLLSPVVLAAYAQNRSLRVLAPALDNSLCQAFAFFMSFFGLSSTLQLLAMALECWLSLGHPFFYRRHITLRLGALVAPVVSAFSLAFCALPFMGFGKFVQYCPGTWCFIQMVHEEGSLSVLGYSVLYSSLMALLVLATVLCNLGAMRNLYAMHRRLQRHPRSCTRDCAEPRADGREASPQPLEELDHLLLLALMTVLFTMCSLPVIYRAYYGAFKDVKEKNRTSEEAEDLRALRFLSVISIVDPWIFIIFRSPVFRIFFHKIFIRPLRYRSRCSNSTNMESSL

[16] = target: T3, Prostaglandin E2 receptor EP3 subtype (Homo sapiens, UniProt P43115); experiment: Binding affinity to human EP3 receptor expressed in HEK293 cells; assay type: cell-based
T3 sequence (P43115 whole entry): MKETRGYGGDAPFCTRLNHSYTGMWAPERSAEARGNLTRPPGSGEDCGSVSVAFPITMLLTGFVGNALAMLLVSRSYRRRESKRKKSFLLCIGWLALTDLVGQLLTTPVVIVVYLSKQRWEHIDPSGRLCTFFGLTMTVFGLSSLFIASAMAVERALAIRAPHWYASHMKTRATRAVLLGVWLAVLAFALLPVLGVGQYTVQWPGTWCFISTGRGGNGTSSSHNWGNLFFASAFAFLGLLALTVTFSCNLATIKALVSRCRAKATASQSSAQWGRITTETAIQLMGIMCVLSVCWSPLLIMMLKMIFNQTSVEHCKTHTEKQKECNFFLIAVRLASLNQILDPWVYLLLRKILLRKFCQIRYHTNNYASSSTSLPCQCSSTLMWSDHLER

[17] = target: Prostaglandin E2 receptor EP2 subtype (Homo sapiens, UniProt P43116); experiment: Binding affinity to human EP2 receptor expressed in HEK293 cells; assay type: cell-based
Prostaglandin E2 receptor EP2 subtype, sequence (P43116 whole entry): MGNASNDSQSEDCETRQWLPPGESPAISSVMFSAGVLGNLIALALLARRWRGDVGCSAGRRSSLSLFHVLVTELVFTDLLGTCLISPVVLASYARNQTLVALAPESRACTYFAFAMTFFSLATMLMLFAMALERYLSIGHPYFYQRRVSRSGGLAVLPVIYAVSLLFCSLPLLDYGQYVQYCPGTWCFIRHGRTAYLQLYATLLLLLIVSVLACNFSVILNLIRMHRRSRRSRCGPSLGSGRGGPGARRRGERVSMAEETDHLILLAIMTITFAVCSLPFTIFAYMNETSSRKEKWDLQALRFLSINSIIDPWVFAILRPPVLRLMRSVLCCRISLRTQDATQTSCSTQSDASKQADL

[18] = target: T4, Prostaglandin E2 receptor EP1 subtype (Homo sapiens, UniProt P34995); experiment: Binding affinity to human EP1 receptor expressed in HEK293 cells; assay type: cell-based
T4 sequence (P34995 whole entry): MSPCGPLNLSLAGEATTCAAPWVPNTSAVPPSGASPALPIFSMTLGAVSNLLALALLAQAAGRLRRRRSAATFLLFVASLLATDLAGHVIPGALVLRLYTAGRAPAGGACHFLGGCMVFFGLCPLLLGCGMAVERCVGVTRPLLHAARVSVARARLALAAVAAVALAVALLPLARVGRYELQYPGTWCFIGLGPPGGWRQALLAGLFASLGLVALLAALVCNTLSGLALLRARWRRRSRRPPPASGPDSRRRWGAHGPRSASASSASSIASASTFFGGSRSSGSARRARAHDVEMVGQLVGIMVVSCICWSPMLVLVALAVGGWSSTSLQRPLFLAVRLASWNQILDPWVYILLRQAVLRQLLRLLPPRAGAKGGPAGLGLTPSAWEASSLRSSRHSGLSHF

[19] = target: T5, Thromboxane A2 receptor (Homo sapiens, UniProt P21731); experiment: Binding affinity to human TP receptor expressed in HEK293 cells; assay type: cell-based
T5 sequence (P21731 whole entry): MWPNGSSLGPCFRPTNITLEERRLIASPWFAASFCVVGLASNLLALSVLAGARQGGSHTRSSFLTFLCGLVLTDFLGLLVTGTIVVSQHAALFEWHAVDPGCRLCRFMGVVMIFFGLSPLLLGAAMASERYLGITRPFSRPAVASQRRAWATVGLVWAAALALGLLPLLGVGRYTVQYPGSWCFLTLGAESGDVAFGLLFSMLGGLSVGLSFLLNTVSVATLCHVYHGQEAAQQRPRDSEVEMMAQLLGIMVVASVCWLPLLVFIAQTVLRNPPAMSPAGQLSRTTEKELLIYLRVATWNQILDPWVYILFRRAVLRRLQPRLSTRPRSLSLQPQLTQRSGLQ

[20] = target: Prostaglandin F2-alpha receptor (Homo sapiens, UniProt P43088); experiment: Binding affinity to human FP receptor expressed in HEK293 cells; assay type: cell-based
Prostaglandin F2-alpha receptor, sequence (P43088 whole entry): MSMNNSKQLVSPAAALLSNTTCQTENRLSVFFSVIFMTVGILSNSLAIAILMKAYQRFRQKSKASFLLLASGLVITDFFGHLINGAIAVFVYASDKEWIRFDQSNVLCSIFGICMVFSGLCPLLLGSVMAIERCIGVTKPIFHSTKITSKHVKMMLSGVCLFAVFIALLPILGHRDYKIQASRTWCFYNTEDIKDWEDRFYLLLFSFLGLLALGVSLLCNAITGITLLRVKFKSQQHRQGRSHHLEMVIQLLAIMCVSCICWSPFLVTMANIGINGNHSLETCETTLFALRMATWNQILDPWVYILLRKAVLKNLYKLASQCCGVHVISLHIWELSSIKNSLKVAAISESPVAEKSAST

[21] = target: Prostacyclin receptor (Homo sapiens, UniProt P43119); experiment: Binding affinity to human IP receptor expressed in HEK293 cells; assay type: cell-based
Prostacyclin receptor, sequence (P43119 whole entry): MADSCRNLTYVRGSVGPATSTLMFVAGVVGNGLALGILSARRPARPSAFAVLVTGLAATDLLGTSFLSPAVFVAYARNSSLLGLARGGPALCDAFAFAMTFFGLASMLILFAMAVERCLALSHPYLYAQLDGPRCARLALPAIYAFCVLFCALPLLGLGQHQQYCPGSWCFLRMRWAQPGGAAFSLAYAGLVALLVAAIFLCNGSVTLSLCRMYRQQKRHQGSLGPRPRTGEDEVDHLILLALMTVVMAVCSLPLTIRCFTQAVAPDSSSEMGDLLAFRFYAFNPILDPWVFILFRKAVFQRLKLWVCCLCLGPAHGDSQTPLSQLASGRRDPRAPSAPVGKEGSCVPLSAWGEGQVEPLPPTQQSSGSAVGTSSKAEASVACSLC

[22] = species: Rattus norvegicus; experiment: Antiinflammatory activity against adjuvant-induced rat arthritis model; assay type: functional

Row | Compound | Ki [13] [nM] | Ki [14] [nM] | also measured
1 | CCOc1c2c(c(OCC)c3ncccc13)CN(c1ccc(CS(=O)(=O)[N-]C(=O)Cc3ccccc3OC)cc1C)C2=O.[Na+] | – | – | half-life [1]: 4.1 h; clearance [2]: 0.4 mL/min/kg; Vd [3]: 0.1 L/kg; bioavailability [4]: > 99%; half-life [5]: 2.7 h; clearance [6]: 7.8 mL/min/kg; Vd [7]: 1.6 L/kg; bioavailability [8]: 18%; half-life [9]: 8.6 h; clearance [10]: 3.6 mL/min/kg; Vd [11]: 0.6 L/kg; bioavailability [12]: 49%
2 | CCOc1c2c(c(OCC)c3ncccc13)CN(c1ccc(CS(=O)(=O)NC(=O)Cc3ccccc3Cl)cc1C)C2=O | 0.27 | 37 | –
3 | CCOc1c2c(c(OCC)c3ccccc13)C(=O)N(c1ccc(CS(=O)(=O)NC(=O)Cc3ccccc3)cc1)C2 | 0.31 | > 4000 | –
4 | CCOc1c2c(c(OCC)c3ccccc13)C(=O)N(c1ccc(CS(=O)(=O)NC(=O)Cc3ccccc3)cc1C)C2 | 0.25 | 29 | –
5 | CCOc1c2c(c(OCC)c3ccccc13)C(=O)N(c1ccc(CS(=O)(=O)NC(=O)Cc3cccc4ccccc34)cc1)C2 | 0.43 | 4.8 | –
6 | CCOc1c2c(c(OCC)c3ccccc13)C(=O)N(c1ccc(CS(=O)(=O)NC(=O)CCc3ccsc3)cc1)C2 | 4.2 | > 4000 | –
7 | CCOc1ccccc1CC(=O)NS(=O)(=O)Cc1ccc(N2Cc3c(c(OCC)c4cccnc4c3OCC)C2=O)c(C)c1 | 0.27 | 8.9 | –
8 | CCOc1c2c(c(OCC)c3ncccc13)C(=O)N(c1ccc(CS(=O)(=O)NC(=O)Cc3ccccc3)cc1C)C2 | 3.3 | 660 | –
9 | CCOc1c2c(c(OCC)c3ccccc13)C(=O)N(c1ccc(CS(=O)(=O)NC(=O)COc3ccccc3)cc1)C2 | 0.38 | 1200 | –
10 | CCOc1c2c(c(OCC)c3ccccc13)C(=O)N(c1ccc(CS(=O)(=O)NC(=O)Cc3cc(OC)ccc3OC)cc1)C2 | 0.37 | 38 | –
11 | CCOc1c2c(c(OCC)c3ncccc13)CN(c1ccc(CS(=O)(=O)NC(=O)C3(c4ccccc4OC)CC3)cc1C)C2=O | 0.55 | 4.2 | –
12 | CCOc1c2c(c(OCC)c3ncccc13)CN(c1ccc(CS(=O)(=O)NC(=O)Cc3ccccc3OC(F)F)cc1C)C2=O | 0.32 | 13 | –
13 | CCOc1c2c(c(OCC)c3ncccc13)CN(c1ccc(CS(=O)(=O)NC(=O)Cc3ccccn3)cc1C)C2=O | 2.4 | 13 | –
14 | CCOc1c2c(c(OCC)c3ncccc13)CN(c1ccc(CS(=O)(=O)NC(=O)Cc3ccccc3OC(F)(F)F)cc1C)C2=O | 0.21 | 56 | –
15 | COc1ccccc1C1(C(=O)NS(=O)(=O)Cc2ccc(N3Cc4c(c(OCC(F)(F)F)c5cccnc5c4OCC(F)(F)F)C3=O)c(C)c2)CC1 | 0.95 | 12 | –
16 | CCOc1c2c(c(OCC)c3ncccc13)CN(c1ccc(CS(=O)(=O)NC(=O)Cc3ccccc3C(F)(F)F)cc1C)C2=O | 0.43 | 350 | –

Row | Compound | Ki [13] [nM] | Ki [14] [nM] | also measured
17 | CCOc1c2c(c(OCC)c3ccccc13)C(=O)N(c1ccc(CS(=O)(=O)NC(=O)Cc3c(C)cc(C)cc3C)cc1)C2 | 0.43 | 380 | –
18 | COc1ccccc1CC(=O)NS(=O)(=O)Cc1ccc(N2Cc3c(c(OCC(F)(F)F)c4cccnc4c3OCC(F)(F)F)C2=O)c(C)c1 | 0.38 | 17 | –
19 | CCOc1c2c(c(OCC)c3ncccc13)CN(c1ccc(CS(=O)(=O)NC(=O)Cc3c(Cl)cccc3Cl)cc1C)C2=O | 0.28 | 4.8 | –
20 | COc1ccccc1CC(=O)NS(=O)(=O)Cc1ccc(N2Cc3c(c(OC(C)C)c4cccnc4c3OC(C)C)C2=O)c(C)c1 | 0.36 | 26 | –
21 | CCOc1c2c(c(OCC)c3ncccc13)CN(c1ccc(CS(=O)(=O)NC(=O)Cc3ccncc3)cc1C)C2=O | 9.8 | 160 | –
22 | CCOc1c2c(c(OCC)c3ccccc13)C(=O)N(c1ccc(CS(=O)(=O)NC(=O)C3CCCc4ccccc43)cc1)C2 (stereo not drawn) | 1 | 940 | –
23 | CCOc1c2c(c(OCC)c3ncccc13)CN(c1ccc(CS(=O)(=O)NC(=O)Cc3ccccc3OC)cc1C)C2=O | 0.74 | 3.6 | Ki [15]: 1200 nM; Ki [16]: 4000 nM; Ki [17]: 1900 nM; Ki [18]: > 7000 nM; Ki [19]: 630 nM; Ki [20]: 2000 nM; Ki [21]: > 7000 nM
24 | CCOc1c2c(c(OCC)c3ncccc13)CN(c1ccc(CS(=O)(=O)NC(=O)Cc3ccccc3F)cc1C)C2=O | 0.48 | 34 | –
25 | CCOc1c2c(c(OCC)c3ccccc13)C(=O)N(c1ccc(CS(=O)(=O)NC(=O)Cn3nccc3C)cc1)C2 | 2 | 600 | –
26 | CCOc1c2c(c(OCC)c3ncccc13)CN(c1ccc(CS(=O)(=O)NC(=O)Cc3ccccc3)cc1C)C2=O | 0.76 | 31 | –
27 | COc1cccc(OC)c1C1(C(=O)NS(=O)(=O)Cc2ccc(N3Cc4c(c(OCC(F)(F)F)c5cccnc5c4OCC(F)(F)F)C3=O)c(C)c2)CC1 | 0.79 | 1.6 | Ki [15]: 53 nM; Ki [16]: 2700 nM; Ki [17]: 300 nM; Ki [18]: > 9000 nM; Ki [19]: 39 nM; Ki [20]: 340 nM; Ki [21]: 2000 nM; ED50 [22]: 0.005 mg/kg
28 | CCOc1c2c(c(OCC)c3ccccc13)C(=O)N(c1ccc(CS(=O)(=O)NC(=O)Cc3cccc(OC)c3)cc1)C2 | 2.4 | 1600 | –
29 | CCOc1c2c(c(OCC)c3ccccc13)C(=O)N(c1ccc(CS(=O)(=O)NC(=O)C(c3ccccc3)c3ccccc3)cc1)C2 | 7.9 | > 4000 | –
30 | CCOc1c2c(c(OCC)c3ncccc13)CN(c1ccc(CS(=O)(=O)NC(=O)C3(c4c(OC)cccc4OC)CC3)cc1C)C2=O | 0.54 | 2.3 | –
31 | CCOc1c2c(c(OCC)c3ncccc13)CN(c1ccc(CS(=O)(=O)NC(=O)Cc3cccnc3)cc1C)C2=O | 2.8 | 48 | –
32 | CS(=O)(=O)c1ccc(C2=C(c3ccccc3)C(=O)OC2)cc1 [ROFECOXIB] | – | – | ED50 [22]: 0.74 mg/kg
